By melting point is commonly meant the temperature of the solid-liquid transition. Molecule `CC(C)(C)OC(=O)NN(C[C@H](O)[C@H](Cc1ccccc1)NC(=O)OCc1ccccc1)C1CCCCC1` [Example 31, t-Butyl 3-cyclohexyl-3-[(2S, 3S)-2-hydroxy-3-(phenylmethoxycarbonyl)amino-4-phenylbutyl]carbazate] gave a melting point of 142 to 143 °C.
